Results: patent US20210181183A1, “METHODS FOR DETERMINING SELECTIVITY OF TEST COMPOUNDS” (CEMM - FORSCHUNGSZENTRUM FÜR MOLEKULARE MEDIZIN GmBH, priority 2017, published 2021)

Columns and labels:
[1] = system: CD20+ cells over CD20- cells of a B-cell lymphoblastic lymphoma patient; assay: ex vivo selectivity of compounds to kill cancerous versus non-cancerous cells, pleural effusion of B-LBL patient (Example 7); type: cell-based, human; settings: fraction of live cancerous cells of live total cells relative to DMSO control, <1 = selectively kills cancerous cells
[2] = system: CD79a+ cells over CD79a- cells of a diffuse large B-cell lymphoma patient; assay: ex vivo selectivity of compounds to kill cancerous versus non-cancerous cells, excised lymph node of DLBCL patient (Example 8); type: cell-based, human; settings: fraction of live cancerous cells of live total cells relative to DMSO control; dissociated lymph node cells; <1 = selectively kills cancerous cells
Procedure: Monolayers were incubated overnight (18 h). […] Unstained cells were considered non-cancerous cells.

SMILES	value/selectivity determined according to the present invention [1]	value/selectivity [2]
Sc1ncnc2nc[nH]c12 [6-mercaptopurine]	0.58	–
CC(C)C[C@H](NC(=O)[C@H](Cc1ccccc1)NC(=O)c1cnccn1)B(O)O [bortezomib]	0.50	0.59
Nc1nc(Cl)nc2c1ncn2[C@H]1C[C@H](O)[C@@H](CO)O1 [cladribine]	–	0.73
